Key:
[1] = Liquid; for mass density: 298.15 K, 101.33 kPa
[2] = refractive index (Na D-line) (dimensionless); conditions: 298.15 K, 101.33 kPa, Liquid

CCC(=O)CC [pentan-3-one]
Conditions	mass density [kg/m3]	refractive index	vapor or sublimation pressure [kPa]
[1], 290 K	–	–	3.42
[1], 309.9 K	–	–	9.21
[1], 320 K	–	–	14.22
[1], 330.6 K	–	–	22.33
[1], 341.4 K	–	–	33.64
[1], 350.4 K	–	–	46.5
[1], 361.3 K	–	–	66.6
[1], 367.5 K	–	–	82.09
[1], 371 K	–	–	90.18
[1], 371.5 K	–	–	91.82
[1], 374.75 K	–	–	101.32
[1], 375.2 K	–	–	102.52
[1], Vibrating tube method	809.43	–	–
[2], Standard Abbe refractometry	–	1.39	–

CCC(O)CC [3-pentanol]
Conditions	mass density [kg/m3]	refractive index	vapor or sublimation pressure [kPa]
[1], 293.8 K	–	–	0.84
[1], 300.8 K	–	–	1.33
[1], 308 K	–	–	2.11
[1], 315.4 K	–	–	3.35
[1], 323 K	–	–	5.31
[1], 331.1 K	–	–	8.41
[1], 339.8 K	–	–	13.33
[1], 349.3 K	–	–	21.13
[1], 359.4 K	–	–	33.49
[1], 370.5 K	–	–	53.08
[1], 382.9 K	–	–	84.13
[1], 388.38 K	–	–	101.32
[1], 388.7 K	–	–	101.32
[1], vibrating tube	815.5	–	–
[2], Abbe refractometer	–	1.4087	–

CCCC(C)=O [pentan-2-one]
Conditions	mass density [kg/m3]	refractive index	vapor or sublimation pressure [kPa]
[1], 329.8 K	–	–	20.44
[1], 336.3 K	–	–	26.55
[1], 342.1 K	–	–	33.04
[1], 347.2 K	–	–	39.99
[1], 351.5 K	–	–	46.57
[1], 355.5 K	–	–	53.47
[1], 358.9 K	–	–	59.95
[1], 362 K	–	–	66.61
[1], 365 K	–	–	73.28
[1], 367.7 K	–	–	79.91
[1], 370.3 K	–	–	86.76
[1], 372.6 K	–	–	93.11
[1], 375 K	–	–	100.06
[1], 375.09 K	–	–	101.32
[1], 377.2 K	–	–	106.83
[1], 379.3 K	–	–	113.61
[1], 381.2 K	–	–	120.11
[1], 383 K	–	–	126.54
[1], 384.8 K	–	–	133.92
[1], vibrating tube	801.47	–	–
[2], Abbe refractometer	–	1.3881	–

— the NIST ThermoML archive (doi:10.1021/je025651k)
